Columns and labels:
[1] = Cytotoxicity against human RXF393 cells assessed as growth level at 10 uM after 48 hrs by SRB assay; assay type: functional, RXF 393
[2] = Cytotoxicity against human PC3 cells assessed as growth inhibition at 10 uM after 48 hrs by SRB assay; assay type: functional; details: PC-3, 48 h, read-out: GI
CCRF-CEM [3] = test: Cytotoxicity against human CCRF-CEM cells assessed as growth level at 10 uM after 48 hrs by SRB assay; assay type: functional
[4] = Cytotoxicity against human BT549 cells assessed as growth level at 10 uM after 48 hrs by SRB assay; assay type: functional, BT-549
[5] = Cytotoxicity against human COLO205 cells assessed as growth level at 10 uM after 48 hrs by SRB assay; assay type: functional, COLO 205
[6] = Cytotoxicity against human OVCAR4 cells assessed as growth level at 10 uM after 48 hrs by SRB assay; assay type: functional, OVCAR-4
MDA-MB-231 [7] = test: Cytotoxicity against human MDA-MB-231 cells assessed as growth inhibition at 10 uM after 48 hrs by SRB assay; assay type: functional; details: MDA-MB-231, 48 h, read-out: GI
[8] = Cytotoxicity against human RPMI8226 cells assessed as growth level at 10 uM after 48 hrs by SRB assay; assay type: functional, RPMI-8226
A549 [9] = test: Cytotoxicity against human A549 cells assessed as growth level at 10 uM after 48 hrs by SRB assay; assay type: functional
SK-MEL-5 [10] = test: Cytotoxicity against human SK-MEL-5 cells assessed as growth inhibition at 10 uM after 48 hrs by SRB assay; assay type: functional; details: SK-MEL-5, 48 h, read-out: GI
[11] = Cytotoxicity against human RPMI8226 cells assessed as growth inhibition at 10 uM after 48 hrs by SRB assay; assay type: functional; details: RPMI-8226, 48 h, read-out: GI
[12] = Cytotoxicity against human UACC257 cells assessed as growth inhibition at 10 uM after 48 hrs by SRB assay; assay type: functional; details: UACC-257, 48 h, read-out: GI
[13] = Cytotoxicity against human SF268 cells assessed as growth level at 10 uM after 48 hrs by SRB assay; assay type: functional, SF-268
MDA-MB-231 [14] = test: Cytotoxicity against human MDA-MB-231 cells assessed as growth level at 10 uM after 48 hrs by SRB assay; assay type: functional
[15] = Cytotoxicity against human IGROV1 cells assessed as growth inhibition at 10 uM after 48 hrs by SRB assay; assay type: functional; details: IGROV-1, 48 h, read-out: GI
SN12C = test: Cytotoxicity against human SN12C cells assessed as growth inhibition at 10 uM after 48 hrs by SRB assay; assay type: functional; details: read-out: GI
[16] = Cytotoxicity against human NCI-ADR-RES cells assessed as growth level at 10 uM after 48 hrs by SRB assay; assay type: functional
CCRF-CEM [17] = test: Cytotoxicity against human CCRF-CEM cells assessed as growth inhibition at 10 uM after 48 hrs by SRB assay; assay type: functional; details: read-out: GI
HT-29 = test: Cytotoxicity against human HT-29 cells assessed as growth level at 10 uM after 48 hrs by SRB assay; assay type: functional
SK-MEL-28 = test: Cytotoxicity against human SK-MEL-28 cells assessed as growth inhibition at 10 uM after 48 hrs by SRB assay; assay type: functional; details: SK-MEL-28, 48 h, read-out: GI
K562 = test: Cytotoxicity against human K562 cells assessed as growth inhibition at 10 uM after 48 hrs by SRB assay; assay type: functional; details: K562, 48 h, read-out: GI
[18] = Cytotoxicity against human SW620 cells assessed as growth inhibition at 10 uM after 48 hrs by SRB assay; assay type: functional; details: SW-620, 48 h, read-out: GI
U-251 [19] = test: Cytotoxicity against human U251 cells assessed as growth inhibition at 10 uM after 48 hrs by SRB assay; assay type: functional; details: U-251, 48 h, read-out: GI
[20] = Cytotoxicity against human SF539 cells assessed as growth level at 10 uM after 48 hrs by SRB assay; assay type: functional, SF-539
M14 [21] = test: Cytotoxicity against human M14 cells assessed as growth inhibition at 10 uM after 48 hrs by SRB assay; assay type: functional; details: M14, 48 h, read-out: GI
786-0 = test: Cytotoxicity against human 786-0 cells assessed as growth level at 10 uM after 48 hrs by SRB assay; assay type: functional
M14 [22] = test: Cytotoxicity against human M14 cells assessed as growth level at 10 uM after 48 hrs by SRB assay; assay type: functional
MDA-MB-435 [23] = test: Cytotoxicity against human MDA-MB-435 cells assessed as growth level at 10 uM after 48 hrs by SRB assay; assay type: functional
[24] = Cytotoxicity against human SF268 cells assessed as growth inhibition at 10 uM after 48 hrs by SRB assay; assay type: functional; details: SF-268, 48 h, read-out: GI
[25] = Cytotoxicity against human HCT15 cells assessed as growth inhibition at 10 uM after 48 hrs by SRB assay; assay type: functional; details: HCT-15, 48 h, read-out: GI
EKVX = test: Cytotoxicity against human EKVX cells assessed as growth inhibition at 10 uM after 48 hrs by SRB assay; assay type: functional; details: read-out: GI
MCF7 = test: Cytotoxicity against human MCF7 cells assessed as growth inhibition at 10 uM after 48 hrs by SRB assay; assay type: functional; details: MCF7, 48 h, read-out: GI
NCI-H522 = test: Cytotoxicity against human NCI-H522 cells assessed as growth level at 10 uM after 48 hrs by SRB assay; assay type: functional
[26] = Cytotoxicity against human HCT15 cells assessed as growth level at 10 uM after 48 hrs by SRB assay; assay type: functional, HCT-15
[27] = Cytotoxicity against human NCI-ADR-RES cells assessed as growth inhibition at 10 uM after 48 hrs by SRB assay; assay type: functional; details: read-out: GI
SK-MEL-5 [28] = test: Cytotoxicity against human SK-MEL-5 cells assessed as growth level at 10 uM after 48 hrs by SRB assay; assay type: functional
[29] = Cytotoxicity against human TK10 cells assessed as growth level at 10 uM after 48 hrs by SRB assay; assay type: functional, TK-10
T47D = test: Cytotoxicity against human T47D cells assessed as growth inhibition at 10 uM after 48 hrs by SRB assay; assay type: functional; details: read-out: GI
U-251 [30] = test: Cytotoxicity against human U251 cells assessed as growth level at 10 uM after 48 hrs by SRB assay; assay type: functional
[31] = Cytotoxicity against human DU145 cells assessed as growth level at 10 uM after 48 hrs by SRB assay; assay type: functional, DU-145
MDA-MB-435 [32] = test: Cytotoxicity against human MDA-MB-435 cells assessed as growth inhibition at 10 uM after 48 hrs by SRB assay; assay type: functional; details: MDA-MB-435, 48 h, read-out: GI
[33] = Cytotoxicity against human OVCAR8 cells assessed as growth level at 10 uM after 48 hrs by SRB assay; assay type: functional, OVCAR-8
[34] = Cytotoxicity against human HOP92 cells assessed as growth level at 10 uM after 48 hrs by SRB assay; assay type: functional, HOP-92
NCI-H226 = test: Cytotoxicity against human NCI-H226 cells assessed as growth level at 10 uM after 48 hrs by SRB assay; assay type: functional
A549 [35] = test: Cytotoxicity against human A549 cells assessed as growth inhibition at 10 uM after 48 hrs by SRB assay; assay type: functional; details: A549, 48 h, read-out: GI

C=C1CC[C@@H]2[C@](C)(COC(C)=O)[C@H](OC(C)=O)CC[C@@]2(C)[C@@H]1CC(NCCCC)C1=CCOC1=O (mixture of isomers)
Activity [1]: 104.19% | inhibition of growth at 10 µM [2]: 48.8% | Activity (CCRF-CEM [3]): 80.69% | Activity [4]: 89.2% | Activity [5]: 82.08% | Activity [6]: 85.7% | inhibition of growth at 10 µM (MDA-MB-231 [7]): 20.9% | Activity [8]: 60.49% | Activity (A549 [9]): 81.23% | inhibition of growth at 10 µM (SK-MEL-5 [10]): 24% | inhibition of growth at 10 µM [11]: 39.5% | inhibition of growth at 10 µM [12]: 14.8% | Activity [13]: 76.97% | Activity (MDA-MB-231 [14]): 79.12% | inhibition of growth at 10 µM [15]: 20% | inhibition of growth at 10 µM (SN12C): 10.2% | Activity [16]: 87.27% | inhibition of growth at 10 µM (CCRF-CEM [17]): 19.3% | Activity (HT-29): 82.56% | inhibition of growth at 10 µM (SK-MEL-28): 1.91% | inhibition of growth at 10 µM (K562): 30.5% | inhibition of growth at 10 µM [18]: 4.99% | inhibition of growth at 10 µM (U-251 [19]): 13.2% | Activity [20]: 90.54% | inhibition of growth at 10 µM (M14 [21]): 7.25% | Activity (786-0): 96.07% | Activity (M14 [22]): 92.75% | Activity (MDA-MB-435 [23]): 88.61% | inhibition of growth at 10 µM [24]: 23% | inhibition of growth at 10 µM [25]: 3.11% | inhibition of growth at 10 µM (EKVX): 28.6% | inhibition of growth at 10 µM (MCF7): 17.1% | Activity (NCI-H522): 79.13% | Activity [26]: 96.89% | inhibition of growth at 10 µM [27]: 12.7% | Activity (SK-MEL-5 [28]): 76.02% | Activity [29]: 99.06% | inhibition of growth at 10 µM (T47D): 28% | Activity (U-251 [30]): 86.76% | Activity [31]: 99.18% | inhibition of growth at 10 µM (MDA-MB-435 [32]): 11.4% | Activity [33]: 89.63% | Activity [34]: 53.32% | Activity (NCI-H226): 75.67% | inhibition of growth at 10 µM (A549 [35]): 18.8%

C=C1CC[C@@H]2[C@](C)(COC(C)=O)[C@H](OC(C)=O)CC[C@@]2(C)[C@@H]1CC(NC1CCCC1)C1=CCOC1=O (stereo not given in full)
Activity [1]: 78.03% | inhibition of growth at 10 µM [2]: 55.3% | Activity (CCRF-CEM [3]): 63.47% | Activity [4]: 55.62% | Activity [5]: 75.23% | Activity [6]: 58.35% | inhibition of growth at 10 µM (MDA-MB-231 [7]): 19.6% | Activity [8]: 37.5% | Activity (A549 [9]): 73.55% | inhibition of growth at 10 µM (SK-MEL-5 [10]): 65.7% | inhibition of growth at 10 µM [11]: 62.5% | inhibition of growth at 10 µM [12]: 61.6% | Activity [13]: 76.66% | Activity (MDA-MB-231 [14]): 80.39% | inhibition of growth at 10 µM [15]: 11.8% | inhibition of growth at 10 µM (SN12C): 21.5% | Activity [16]: 68.47% | inhibition of growth at 10 µM (CCRF-CEM [17]): 36.5% | Activity (HT-29): 75.54% | inhibition of growth at 10 µM (SK-MEL-28): 8.95% | inhibition of growth at 10 µM (K562): 51.7% | inhibition of growth at 10 µM [18]: 32.5% | inhibition of growth at 10 µM (U-251 [19]): 24.6% | Activity [20]: 89.44% | inhibition of growth at 10 µM (M14 [21]): 20.9% | Activity (786-0): 92.51% | Activity (M14 [22]): 79.06% | Activity (MDA-MB-435 [23]): 75.73% | inhibition of growth at 10 µM [24]: 23.3% | inhibition of growth at 10 µM [25]: 33% | inhibition of growth at 10 µM (EKVX): 47.6% | inhibition of growth at 10 µM (MCF7): 27.6% | Activity (NCI-H522): 45.56% | Activity [26]: 67.03% | inhibition of growth at 10 µM [27]: 31.5% | Activity (SK-MEL-5 [28]): 34.29% | Activity [29]: 87.06% | inhibition of growth at 10 µM (T47D): 49.1% | Activity (U-251 [30]): 75.39% | Activity [31]: 91.96% | inhibition of growth at 10 µM (MDA-MB-435 [32]): 24.3% | Activity [33]: 53.68% | Activity [34]: 25.23% | Activity (NCI-H226): 84.46% | inhibition of growth at 10 µM (A549 [35]): 26.4%

— ChEMBL document CHEMBL3734705, “Synthesis and in vitro cytotoxicity of novel C-12 substituted-14-deoxy-andrographolide derivatives as potent anti-cancer agents” (2015)
